Source: patent US20240034723A1, “PIPERIDINYL SMALL MOLECULE DEGRADERS OF HELIOS AND METHODS OF USE” (DANA-FARBER CANCER INSTITUTE, INC., priority 2020, published 2024)

What follows are molecules tested against T1, IKZF2 (Helios) (Homo sapiens, UniProt Q96SW2+Q9UKS7) (assay: HiBiT protocol: HiBiT-Helios degradation in MOLT4 cells (Example 63)). Conditions: after 6 hours of treatment, 13-point 10 μM to 0.00026 μM.
T1 construct: CRISPR/Cas-mediated insertion of the HiBiT peptide tag (Promega™) to the N-terminus of the IKZF2 gene locus; endogenous in cells; host or cells: MOLT4 cells, CRISPR/Cas knock-in of HiBiT at the endogenous IKZF2 locus
Type: cell-based
Procedure: The HiBiT protein tagging system was applied to MOLT4 cells via a CRISPR/Cas-mediated insertion of the HiBiT peptide tag (Promega™) to the N-terminus of the IKZF2 gene locus (Neon™ Transfection System). The resulting HiBiT-Helios stable cell line was treated with the following inventive compounds in triplicates following a 13-point concentration scheme ranging from 10 μM to 0.00026 μM. At the indicated timepoints, the Nano-Glo® HiBiT Lytic Detection system (Promega™) was utilized for detecting bioluminescence of the HiBiT tag in treated cells: the abundance of the tag is proportionate to the level of luminescence. Following normalization to DMSO, dose-response curves were plotted (GraphPad Prism) to determine the concentration points at which 50% of HiBiT-Helios degradation was achieved by each compound. The extent of degradation (range of luminescence) from the highest to lowest concentration points was calculated to determine Dmax.

T1 sequence (Q9UKS7 whole entry): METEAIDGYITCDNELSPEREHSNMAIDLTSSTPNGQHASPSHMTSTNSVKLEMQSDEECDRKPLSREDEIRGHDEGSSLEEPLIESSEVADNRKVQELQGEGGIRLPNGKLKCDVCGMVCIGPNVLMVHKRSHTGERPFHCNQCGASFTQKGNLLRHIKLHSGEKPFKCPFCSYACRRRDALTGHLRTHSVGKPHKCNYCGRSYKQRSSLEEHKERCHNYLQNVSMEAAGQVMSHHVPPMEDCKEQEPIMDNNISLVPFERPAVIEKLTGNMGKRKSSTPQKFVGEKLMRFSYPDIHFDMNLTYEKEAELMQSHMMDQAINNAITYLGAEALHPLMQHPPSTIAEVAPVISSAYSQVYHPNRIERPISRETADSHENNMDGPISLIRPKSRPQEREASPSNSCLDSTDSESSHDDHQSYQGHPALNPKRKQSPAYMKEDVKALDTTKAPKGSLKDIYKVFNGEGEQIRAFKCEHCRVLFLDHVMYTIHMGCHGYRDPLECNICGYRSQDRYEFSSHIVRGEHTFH
T1 sequence (Q96SW2 whole entry): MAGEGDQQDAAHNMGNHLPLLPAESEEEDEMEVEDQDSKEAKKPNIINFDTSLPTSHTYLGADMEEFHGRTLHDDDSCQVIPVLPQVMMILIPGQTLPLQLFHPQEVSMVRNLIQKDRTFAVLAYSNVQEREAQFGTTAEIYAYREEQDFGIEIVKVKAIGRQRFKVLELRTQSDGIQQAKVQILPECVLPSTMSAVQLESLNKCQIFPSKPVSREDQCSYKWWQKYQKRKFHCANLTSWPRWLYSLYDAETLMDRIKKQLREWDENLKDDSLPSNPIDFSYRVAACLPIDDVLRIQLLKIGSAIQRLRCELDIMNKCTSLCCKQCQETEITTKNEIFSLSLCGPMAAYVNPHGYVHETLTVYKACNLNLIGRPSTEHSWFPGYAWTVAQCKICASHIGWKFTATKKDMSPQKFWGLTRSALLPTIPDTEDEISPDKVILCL
T1 sequence (Q16531 whole entry partner): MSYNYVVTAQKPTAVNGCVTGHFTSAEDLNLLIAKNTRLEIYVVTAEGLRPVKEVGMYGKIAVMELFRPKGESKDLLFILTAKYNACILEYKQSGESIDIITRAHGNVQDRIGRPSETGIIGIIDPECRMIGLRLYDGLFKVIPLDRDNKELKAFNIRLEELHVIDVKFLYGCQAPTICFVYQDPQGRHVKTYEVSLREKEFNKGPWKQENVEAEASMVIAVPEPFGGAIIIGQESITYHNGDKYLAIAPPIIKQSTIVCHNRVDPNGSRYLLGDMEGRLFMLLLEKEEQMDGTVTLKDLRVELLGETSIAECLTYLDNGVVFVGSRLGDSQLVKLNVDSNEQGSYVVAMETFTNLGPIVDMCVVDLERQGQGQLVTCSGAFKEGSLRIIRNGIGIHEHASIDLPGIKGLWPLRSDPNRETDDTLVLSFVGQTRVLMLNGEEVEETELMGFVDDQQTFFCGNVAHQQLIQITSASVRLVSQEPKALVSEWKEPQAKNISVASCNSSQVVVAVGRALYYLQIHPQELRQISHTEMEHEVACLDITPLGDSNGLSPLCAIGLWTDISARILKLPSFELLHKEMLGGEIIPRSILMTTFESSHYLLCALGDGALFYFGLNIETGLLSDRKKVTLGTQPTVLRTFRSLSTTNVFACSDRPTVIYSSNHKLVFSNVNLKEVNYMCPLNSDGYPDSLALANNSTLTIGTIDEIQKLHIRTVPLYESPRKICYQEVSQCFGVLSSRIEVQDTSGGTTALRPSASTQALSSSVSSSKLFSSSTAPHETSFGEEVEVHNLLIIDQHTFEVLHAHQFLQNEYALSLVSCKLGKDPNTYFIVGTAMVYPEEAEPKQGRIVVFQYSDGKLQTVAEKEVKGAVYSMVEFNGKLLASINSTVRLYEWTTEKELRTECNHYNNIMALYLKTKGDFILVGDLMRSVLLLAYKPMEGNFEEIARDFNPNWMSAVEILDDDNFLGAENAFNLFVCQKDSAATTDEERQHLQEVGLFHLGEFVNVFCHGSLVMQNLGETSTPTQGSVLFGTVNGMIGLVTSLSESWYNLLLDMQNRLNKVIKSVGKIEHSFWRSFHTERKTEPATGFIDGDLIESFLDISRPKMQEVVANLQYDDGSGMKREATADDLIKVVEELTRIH

Compound | DC50
O=C1CCC(N2Cc3cc(C4CCN(Cc5ccc6c(c5)C(=O)N(c5ccccc5)CCO6)CC4)ccc3C2=O)C(=O)N1 (centres unmarked) [Compound 1, 3-(1-oxo-5-(1-((5-oxo-4-phenyl-2,3,4,5-tetrahydrobenzo[f][1,4]oxazepin-7-yl)methyl)piperidin-4-yl)isoindolin-2-yl)piperidine-2,6-dione] | < 5 nM
O=C1CCC(N2Cc3cc(C4CCN(Cc5ccc6c(c5)C(=O)N(c5ccccn5)CCO6)CC4)ccc3C2=O)C(=O)N1 (centres unmarked) [Compound 3] | 5 to 25 nM
O=C1CCC(N2Cc3cc(C4CCN(Cc5ccc6c(c5)C(=O)N(c5cccc(F)c5)CCO6)CC4)ccc3C2=O)C(=O)N1 (centres unmarked) [Compound 5] | < 5 nM
O=C1CCC(N2Cc3cc(C4CCN(Cc5ccc6c(c5)C(=O)N(c5cccc(Cl)c5)CCO6)CC4)ccc3C2=O)C(=O)N1 (centres unmarked) [Compound 6] | < 5 nM
O=C1CCC(N2Cc3cc(C4CCN(Cc5cc6n(n5)CCN(c5ccccc5)C6=O)CC4)ccc3C2=O)C(=O)N1 (centres unmarked) [Compound 8, 3-(1-oxo-5-(1-((4-oxo-5-phenyl-4,5,6,7-tetrahydropyrazolo[1,5a]pyrazin-2-yl)methyl)piperidin-4-yl)isoindolin-2-yl)piperidine-2,6-dione] | 5 to 25 nM
Cn1cccc(Nc2cccc(CN3CCC(c4ccc5c(c4)CN(C4CCC(=O)NC4=O)C5=O)CC3)c2)c1=O (centres unmarked) [Compound 12, 3-(5-(1-(3-((1-Methyl-2-oxo-1,2-dihydropyridin-3-yl)amino)benzyl)piperidin-4-yl)-1-oxoisoindolin-2-yl)piperidine-2,6-dione] | 5 to 25 nM
O=C1CCC(N2Cc3cc(C4CCN(Cc5ccc6c(c5)N(c5ccccc5)C(=O)C6)CC4)ccc3C2=O)C(=O)N1 (centres unmarked) [Compound 18, 3-[1-oxo-5-[1-[(2-oxo-1-phenyl-indolin-6-yl)methyl]-4-piperidyl]isoindolin-2-yl]piperidine-2,6-dione] | < 5 nM
O=C1CCC(N2Cc3cc(C4CCN(Cc5ccc6c(c5)N(c5ccccc5)C(=O)CCC6)CC4)ccc3C2=O)C(=O)N1 (centres unmarked) [Compound 22] | 5 to 25 nM
O=C1CCC(N2Cc3cc(C4CCN(Cc5ccc6cc(-c7ccccc7)nn6c5)CC4)ccc3C2=O)C(=O)N1 (centres unmarked) [Compound 38, 3-[1-oxo-5-[1-[(2-phenylpyrazolo[1,5-a]pyridin-6-yl)methyl]-4-piperidyl]isoindolin-2-yl]piperidine-2,6-dione] | 5 to 25 nM
O=C1CCC(N2Cc3cc(C4CCN(Cc5ccc6ccc(-c7ccccc7)nc6c5)CC4)ccc3C2=O)C(=O)N1 (centres unmarked) [Compound 41] | 25 to 100 nM
O=C1CCC(N2Cc3cc(C4CCN(Cc5ccc6cn(-c7ccccc7)nc6c5)CC4)ccc3C2=O)C(=O)N1 (centres unmarked) [Compound 42] | < 5 nM
O=C1CCC(N2Cc3cc(C4CCN(Cc5ccc6c(c5)C(=O)N(c5ncccn5)CCO6)CC4)ccc3C2=O)C(=O)N1 (centres unmarked) [Compound 46] | 5 to 25 nM
O=C1CCC(N2Cc3cc(C4CCN(Cc5ccc6c(c5)C(=O)N(c5ccncn5)CCO6)CC4)ccc3C2=O)C(=O)N1 (centres unmarked) [Compound 47] | 5 to 25 nM
O=C1CCC(N2Cc3cc(C4CCN(Cc5ccc6c(c5)C(=O)N(c5ccsn5)CCO6)CC4)ccc3C2=O)C(=O)N1 (centres unmarked) [Compound 48] | 5 to 25 nM
O=C1CCC(N2Cc3cc(C4CCN(Cc5ccc6c(c5)C(=O)N(c5ccns5)CCO6)CC4)ccc3C2=O)C(=O)N1 (centres unmarked) [Compound 49] | < 5 nM

Next, values leading:

DC50 | Compound
5 to 25 nM | O=C1CCC(N2Cc3cc(C4CCN(Cc5ccc6ncn(-c7ccccc7F)c(=O)c6c5)CC4)ccc3C2=O)C(=O)N1 (centres unmarked) [Compound 27]
5 to 25 nM | O=C1CCC(N2Cc3cc(C4CCN(Cc5ccc6ncn(-c7ccccn7)c(=O)c6c5)CC4)ccc3C2=O)C(=O)N1 (centres unmarked) [Compound 31, 3-(1-oxo-5-(1-((4-oxo-3-(pyridin-2-yl)-3,4-dihydroquinazolin-6-yl)methyl)piperidin-4-yl)isoindolin-2-yl)piperidine-2,6-dione]
5 to 25 nM | O=C1CCC(N2Cc3cc(C4CCN(Cc5ccc6cnn(-c7ccccn7)c(=O)c6c5)CC4)ccc3C2=O)C(=O)N1 (centres unmarked) [Compound 43, 3-[1-oxo-5-[1-[[4-oxo-3-(2-pyridyl)phthalazin-6-yl]methyl]-4-piperidyl]isoindolin-2-yl]piperidine-2,6-dione]
5 to 25 nM | O=C1CCC(N2Cc3cc(C4CCN(Cc5ccc6ncn(-c7ccccc7)c(=O)c6c5)CC4)ccc3C2=O)C(=O)N1 (centres unmarked) [Compound 44]
< 5 nM | O=C1CCC(N2Cc3cc(C4CCN(Cc5ccc6c(c5)C(=O)N(c5ccccc5F)CCO6)CC4)ccc3C2=O)C(=O)N1 (centres unmarked) [Compound 45]
< 5 nM | O=C1CCC(N2Cc3cc(C4CCN(Cc5ccc6ccn(-c7ccccn7)c(=O)c6c5)CC4)ccc3C2=O)C(=O)N1 (centres unmarked) [Compound 57]
< 5 nM | O=C1CCC(N2Cc3cc(C4CCN(Cc5ccc6ncn(-c7ncccc7F)c(=O)c6c5)CC4)ccc3C2=O)C(=O)N1 (centres unmarked) [Compound 58]
5 to 25 nM | O=C1CCC(N2Cc3cc(C4CCN(Cc5ccc6ncn(-c7ccns7)c(=O)c6c5)CC4)ccc3C2=O)C(=O)N1 (centres unmarked) [Compound 59]
